Experiments:
[1] = tested on: adhesion molecules VACM-1, ICAM-1, and E-selectin; settings: cited from earlier work
daf-16 mutant worm = assay: Lifespan of daf-16 mutant worm; assay type: in vivo, Caenorhabditis elegans; settings: FIG. 3A
Excerpt: To address this issue, the large collection of C. elegans mutants in Caenorhabditis Genetics Center was again utilized in this example. Among the mutants examined, the daf-16 mutant results stood out (FIGS. 3A, 3B, and 3C). […] Among genes of the IIS pathway, daf-2 encodes an insulin-like receptor, and it is the starting point of the pathway that eventually leads to daf-16. Daf-16 is the hub, where information from several different pathways merge and then use to regulate many physiological processes. Worm daf-16 mutant has an average life-span that is […] the N2 worm (FIGS. 3A, 3B, and 3C; FIGS. 4-6).

[2] = tested on: pancreatic/renal kallikrein (Klk1) related Kallikrein system; assay: RNA-seq analysis of peri-infarct area of the MCAO model; assay type: in vivo, mice; settings: FIG. 8
Excerpt: FIGS. 8A and 8B that the results of RNA-seq analysis of peri-infarct area of the MCAO model.
KLK1 is a key protein in the Kallikrein-Kinin system (KKS). The KKS promotes local blood flow and vasodilation, and may also reduce inflammation and oxidative stress. KLK1 is a serine protease that plays a critical role in regulating blood pressure, blood flow, and microcirculation. It's a secretory product of the salivary glands and the pancreas, and is also found in the kidney. KLK1 has a major function of reducing blood pressure by releasing the peptide hormone Lys-bradykinin (kallidin) from low molecular weight kininogen. This affects muscle relaxation and inflammatory processes. KLK1 also has anti-inflammatory, anti-apoptotic, anti-fibrotic, and anti-oxidative actions.

N2 worm = assay: Heat shock survival of N2 worms; assay type: in vivo, Caenorhabditis elegans; settings: moved from 20° C. to 42° C.; a few hundred micromolar; without compound 3 hours; FIG. 2D
Experimental: Besides the oxidative stress, the protective effect of ergothioneine for the worm under heat shock conditions was also examined. After the worms were cultured multiple days, they were then moved from 20° C. to 42° C. Under such a heat-shock condition, 50% of the worm died within 3 hours. However, in the presence of a few hundred micromolar concentration of ergothioneine, it extends N2 worm's average survival time from 3 hours to nearly 8-9 hours (FIG. 2D). Therefore, besides its life-extension effects under regular culture conditions, ergothioneine clearly offers protective effects to worms under oxidative stress and heat shock conditions.

[3] = tested on: stroke middle cerebral artery occlusion (MCAO) model; assay: Stroke middle cerebral artery occlusion (MCAO) model; assay type: in vivo; settings: MCAO mice, vs vehicle
Excerpt: FIGS. 7A, 7B, 7C, and 7D show the protective effect of ergothioneine on stroke MCAO model (images of tissue sample (FIG. 7A), infarct volume (FIG. 7B), neurological deficit (FIG. 7C), and cerebral blood flow (CBF) (FIG. 7D) of Sham, vehicle, and ergothioneine treated mice).
The MCAO model is a stroke model that uses mice and rats. The model involves inserting a surgical filament into the external carotid artery and threading it into the internal carotid artery. The filament is inserted to block blood flow for a set period of time, usually 30-120 minutes. The filament is then removed to allow reperfusion, resulting in an ischemic stroke. A sham mouse is a control animal used in […]. Sham procedures are performed on a control group participant to ensure they experience the same effects as those who receive a true operation.
As shown, ergothioneine reduces the infarct size by at least 50%. […] As shown, ergothioneine reduces neurological deficit by at least 40%. […] As shown, ergothioneine […] cerebral blood flow by at least 60%.

[4] = tested on: primary cortical neuron culture; assay: Oxygen glucose deprivation of primary cortical neuron culture; assay type: cell-based; settings: FIG. 5D
N2 C. elegans = assay: Lifespan of N2 C. elegans under regular culture conditions; assay type: in vivo, Caenorhabditis elegans; settings: FIG. 2A
Excerpt: In this example, the biological functions of ergothioneine were investigated using (C. elegans as the model system. Using (C. elegans as the model has several prominent advantages, including short life cycle, simple experimental manipulation, and rich collection of publicly available genetic mutants (e.g., Caenorhabditis Genetics Center). In addition, its genome comprises 2/3 of human disease-related genes.
To test the biological effect of ergothioneine, the first set of experiments was to test the toxicity level of ergothioneine on the worm model. In humans, ergothioneine is enriched up to 2 mM concentration in many parts of the body.
(§1) At 150 μM, the lifespan of the wild type worm can be extended by 30-40% (FIG. 2A). Over the last two decades, there is numerous evidence supporting the life-extension effect by caloric restriction from various model systems (yeast, worm, fly, and mouse). Thus, the effect of ergothioneine on worm Eat-2 mutant was also examined.

worm Eat-2 mutant = assay: Lifespan of worm Eat-2 mutant (caloric restriction model); assay type: in vivo, Caenorhabditis elegans; settings: FIG. 2B
Experimental: as §1

[5] = tested on: accelerated ageing mouse model; assay: Accelerated ageing mouse model; assay type: in vivo
Excerpt: FIGS. 5A, 5B, 5C, and 5D show the animal study in rats (FIG. 5A: untreated disease group; FIG. 5B treated disease group).
Another aspect provides a method of treating a subject diagnosed to have a premature ageing disease or condition, comprising treating the subject with a therapeutically effective amount of compound I. In some embodiments, the premature ageing disease is Hutchinson-Gilford progeria syndrome. In some embodiments, the premature ageing disease is Werner syndrome. In some embodiments, the premature ageing disease or condition is premature ageing of skin, mucous membranes, scalp and/or hair of the subject. In some embodiments, the method may further include a step of identifying or determining the subject as having premature ageing disease or condition. Procedures of the determination step for premature ageing disease or condition are generally known in the field. As shown in the example section and FIGS. 4-6, the study (accelerated ageing mouse model) analyzed the physical appearance and activities of two groups (with and without the feeding of Compound I, 20 mg/kg daily) over the period of about 1 year.

N2 worms = assay: Paraquat-induced oxidative stress in N2 worms; assay type: in vivo, Caenorhabditis elegans; settings: FIG. 2C
Experimental: Encouraged by the clear life-extension effect on worm model under regular culture conditions in the above example, the protective effect of ergothioneine under stresses was examined. In the first experiment, the worm was treated with paraquat to induce oxidative stress. Under the paraquat-induced oxidative stress conditions, N2 worms' life span was decreased by nearly 50% (FIG. 2C vs. FIG. 2A).

[6] = through transporter OCTN1; humans; cited from earlier work
[7] = in vivo; cited from earlier work
[8] = 20 mg/kg daily feeding, about 1 year, treated vs untreated group
[9] = mice, compared to untreated mice, FIG. 5C

C[N+](C)(C)[C@@H](Cc1c[nH]c(=S)[nH]1)C(=O)O [ergothioneine, Ergothioneine]
expression of adhesion molecules VACM-1, ICAM-1, and E-selectin [1]: decreases the expression
life-extension effect in daf-16 mutant (daf-16 mutant worm): the life-extension effect was abolished
regulation of Klk1 related Kallikrein system (RNA level) [2]: up-regulate
average survival time under heat shock (N2 worm): 8 to 9 h
reduction of infarct size ([3]; FIG. 7B): at least 50%
reduction of neurological deficit ([3]; FIG. 7C): at least 40%
reduction of cerebral blood flow (CBF) ([3]; FIG. 7D): at least 60%
cell death caused by oxygen glucose deprivation [4]: reverses cell death
life-extension effect (N2 C. elegans; 50 μM, N2 C. elegans): robust life-extension effect
lifespan extension (N2 C. elegans; 150 μM, wild type worm): 30-40%
life extension of Eat-2 worm mutant (worm Eat-2 mutant): can further extend the life
effect on the ageing process ([5]; 20 mg/kg daily feeding, about 1 year): could effectively slow down the ageing process
average weight [5, 8]: higher average weight
skin condition [5, 8]: more smooth skin condition
physical activity of the untreated group relative to the treated group ([5]; 20 mg/kg daily feeding, about 1 year, words describe the group without treatment): less active physically
extension of maximum lifespan [5, 9]: at least 30%
extension of median lifespan [5, 9]: at least 40%
protective effect under oxidative stress (N2 worms): clearly offers protective effects and alleviates the detrimental effects of oxidative stress
concentration accumulated in many parts of the body [6]: up to 2 mM
blood-brain barrier passage [7]: can pass through the blood-brain barrier
